{
  "source": "patent US5985824A",
  "about": "“Methods and compositions for treating cystic fibrosis” (priority 1997, dated 1999)",
  "key": {"[1]": {"tested_on": "ΔF508-CFTR (C127-ΔF508-low cells)", "experiment": "immunoprecipitation analysis for mature band C-CFTR in C127-ΔF508-low cells", "type": "cell-based", "details": "DSG 10 to 100 μg/ml, 48 to 72 h", "text": "Detailed procedures for preparing cell lysates, immunoprecipitation, phosphorylation of CFTR using protein kinase A and [γ^32 P]ATP, and polyacrylamide gel electrophoresis have all been described previously (Cheng et al., (1995), supra.; Marshall et al., supra.).\nC127-ΔF508-low (mouse mammary tumor) is a recombinant cell line stably transfected with the cDNA encoding the mutant ΔF508-CFTR (Cheng et al. (1995), supra.; Marshall et al. (1994), J. Biol. Chem. 269: 2987-2995). […] C127-mock is a cell line that has been stably transfected with the backbone of the expression vector used to generate C127-ΔF508-low (Cheng et al. (1995), supra.). LLCPK1 -ΔF508 (pig kidney epithelial) is a recombinant cell line stably expressing low levels of the mutant ΔF508-CFTR protein (Marshall et al., supra.). The details of the generation, characterization and routine propagation of these cell lines has been described (Cheng et al. (1995), supra.; Marshall et al., supra.).\nTo test whether treatment with DSG may interfere with the ability of hsp70 to retain ΔF508-CFTR in the ER, recombinant C127 cells expressing ΔF508-CFTR were seeded onto glass coverslips and were exposed to DSG (10 to 100 μg/ml) (Bristol Myers Squibb, Seattle, Wa.) for 48 to 72 h. Analysis for evidence of mature band C-CFTR (Cheng et al. (1990), supra.) which would be indicative of processing of ΔF508-CFTR in the Golgi was performed. […]"}, "ΔF508-CFTR (IBE-1 cells)": {"tested_on": "ΔF508-CFTR (IBE-1 cells)", "experiment": "whole cell patch-clamp analysis of IBE-1 cells", "type": "cell-based, human", "details": "for reversal potential: DSG-treated cells", "protocol": "The bath (extracellular) solution contained: 140 mM N-methyl-Dglucamine (NMDG), 2 mM CaCl2, 1 mM MgCl2, 0.1 mM CdCl2, 10 mM HEPES, 4 mM CsCl, and 10 mM glucose, pH 7.4. These solutions were designed so as to study only currents flowing through Cl^- channels, since Cl^- was the only significant permeant ion in the solutions. Furthermore, Ca^2+ -activated Cl^- currents were minimized by inclusion of 10 mM EGTA in the intracellular solution and 100 μM of Cd^2+ in the extracellular bath. K^+ currents were minimized by including 20 mM TEA in the intracellular solution. Aspartate was used as the replacement anion in experiments in which extracellular Cl^- concentration was changed. Forskolin (10 μM), IBMX (100 μM), 8-(4-chlorophenylthio)-cAMP (cpt-cAMP, 200 μM), diphenylamine carboxylic acid (DPC, 200 μM), UTP (100 μM), and ionomycin (1 μM) were added to the bath solutions as indicated. Current recordings were made from the same cells before, during, and after exposure to the solutions containing the different agonists or inhibitors. All experiments were performed at room temperature (22° C.). Currents were filtered at 2 kHz. Data acquisition and analysis were performed using the PCLAMP 5.5.1 software (Axon Instruments, Foster City, Calif.).\nIn all of the successfully patched CF IBE-1 cells from 6 separate coverslips no activation of whole cell currents in response to forskolin (10 μM) plus IBMX (100 μM) or cpt-cAMP (200 μM) was detected (FIG. 10A and 10B), indicating no endogenous CFTR channel activity in these cells. In contrast, in 7 out of 19 successful patched cells from 19 separate coverslips treated with DSG (10 μM) for 48 to 72 hrs. a significant activation of whole cell currents was observed. As all the other cells, the holding potential was 0 m, which inactivated the voltage-gated Na^+ and Ca^++ channels. After addition of 200 μM cpt-cAMP to the bath solution, voltage steps from the holding potential to between -100 mV and 80 mV in 20 mV increments activated whole cell currents. In these experiments, the intracellular and extracellular solutions were designed to study only current flowing through Cl^- channels, since Cl^- is the only significant permeant ion in solution. Ca^++ and K^+ currents were minimized by 100 μM of extracellular Cd^++ and 20 mM of intracellular TEA respectively. Furthermore, the currents were ascertained to be Cl^- currents from change in the reversal potential which was shifted from 1.1±1.5 to 47.3±6.1 mV by reducing extracellular Cl^- from 150 mM to 20 mM.\nIt is highly unlikely that Ca^++ -activated Cl^- was recorded in these experiments because of the presence of 10 mM intracellular EGTA and 100 µM extracellular Cd^++. […] Special attention was paid to detect possible contribution of the outwardly rectifying Cl^- channel (ORCC) to the whole cell currents. Because of a possible upregulatory role of CFTR, ORCC can be activated in normal but not in CF airway epithelial cells (Hwang et al. (1989), supra.; Li et al. (1988), Nature 331: 358-360; Morris and Frizzel (1993); Am. J. Physiol.; Schwiebert et al. (1994), Am. J. Physiol.)."}, "immune responses": {"tested_on": "immune responses", "details": "T-cell dependent assays and models; cited from earlier work"}},
  "note": "Entries after “also recorded” stand apart in the source; their conditions may differ.",
  "data": [
    {"smiles": "N=C(N)NCCCCCCC(=O)NC(O)C(=O)NCCCCNCCCN", "note": "(stereo not drawn) [DSG, deoxyspergualin]", "values": [
      {"measurement": "mature band C form of CFTR", "setting": "[1]", "result": "the presence of any mature band C-form of CFTR could not be demonstrated; also recorded: no discernible evidence of the mature band C form of CFTR"},
      {"measurement": "successfully patched cells with significant activation of whole cell currents", "setting": "ΔF508-CFTR (IBE-1 cells); DSG (10 μM) 48 to 72 hrs, cAMP stimulation", "result": "7 out of 19"},
      {"measurement": "reversal potential", "setting": "ΔF508-CFTR (IBE-1 cells); extracellular Cl- 150 mM", "result": "1.1±1.5", "unit": "mV"},
      {"measurement": "reversal potential", "setting": "ΔF508-CFTR (IBE-1 cells); extracellular Cl- reduced to 20 mM", "result": "47.3±6.1", "unit": "mV"},
      {"measurement": "whole cell currents, in words", "setting": "ΔF508-CFTR (IBE-1 cells); IBE-1 cells", "result": "resembled those of wild-type CFTR in epithelial cells; also recorded: almost identical to that recorded in transduced CF IBE-1 cells"},
      {"measurement": "immunosuppressive activity, in words", "setting": "immune responses", "result": "potent immunosuppressive activity"}
    ]}
  ]
}
